Results on 12 molecules are retold here after PubChem BioAssay (NCI).

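A five-concentration, 48-hour dose response in 96-well plates underlies each endpoint, interpolated linearly between surrounding concentrations. GI50 marks 50% less growth. TGI: concentration producing complete growth inhibition.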

What all share (assay): inhibition of tumour cell growth, NCI panel, 48 h
The test system of experiment [1] is 786-0 renal.
Experiment [2] relates to HCT-116 colon.
Experiment [3] has as its system HCT-15 colon.
For experiment [4], the system named is M14 melanoma.
Experiment [5] has as its system MALME-3M melanoma.
For experiment [6], the system named is OVCAR-8 ovarian.
In experiment [7] the test system is SF-268 CNS.
In experiment [8] the test system is SF-539 CNS.
The subject of experiment [9] is SK-MEL-28 melanoma.
Experiment [10] deals with UO-31 renal.

On to `NC(=S)N/N=C/c1ccc(OC(=O)COc2ccc(Cl)cc2)cn1`, for which the GI50 is 3.64 µM in [1]; 4.93 µM in [2]; 22.9 µM in experiment [3]; 3.51 µM in experiment [4]; 12.2 µM in [5]; 3.63 µM in [6]. Moreover, the GI50 is 2.28 µM in [7], 3.64 µM in experiment [8], 36.4 µM in experiment [9] and 3.24 µM in [10]. In addition, the TGI in [1] was 9.98 µM; in experiment [2] it was greater than 100 µM; in experiment [3], greater than 100 µM; in [4] it was 15.6 µM; in experiment [5], greater than 100 µM; in experiment [6], greater than 100 µM. Further, the TGI in experiment [7] is 21.8 µM; in experiment [8], 22.8 µM; in experiment [9], greater than 100 µM; in experiment [10], 21.5 µM.

Consider `CN(C)P(=O)(/C(N)=N/Nc1ccc([N+](=O)[O-])cc1)N(C)C`, for which the TGI in experiment [1], in experiment [2], in [3], in [4], in experiment [5] and in experiment [6] was greater than 100 µM each time. The TGI in experiment [7], in [8], in experiment [9] and in experiment [10] was greater than 100 µM each time.

`COc1ccc(C(=O)c2cc(C)c(OC)c(C)c2)c(OC)c1N(C(=O)C(Cl)Cl)C(=O)C(Cl)Cl`: the GI50 was 0.0455 µM in experiment [1]; 0.0772 µM in [2]; 0.0617 µM in experiment [3]; 0.0338 µM in experiment [4]; 0.129 µM in experiment [5]; 0.0558 µM in [6]. Moreover, the GI50 in experiment [7] is 1.01 µM; in experiment [8], 0.0343 µM; in experiment [9] it was 0.237 µM; in experiment [10], 0.0736 µM. For the same molecule, the TGI in experiment [1] is greater than 100 µM; in experiment [2], greater than 58.8 µM; in experiment [3] it was greater than 100 µM; in experiment [4], greater than 100 µM; in [5] it was greater than 100 µM; in [6] it was greater than 100 µM. In addition, the TGI was greater than 100 µM in experiment [7], 0.206 µM in [8], greater than 100 µM in [9] and greater than 47.5 µM in experiment [10].

In the case of `C[N+](C)(C)CC1CCCC(C[N+](C)(C)C)C1=O` (centres undefined), the TGI in [1] stood at 2.38 µM; in experiment [2] it was 2.23 µM; in experiment [3], 0.874 µM; in [4] it was 2.37 µM; in [5] it was 0.487 µM; in experiment [6] it was 1.15 µM. Besides, the TGI in [7] was determined as 55.9 µM; in [8], 8.8 µM; in experiment [9], 3.75 µM; in experiment [10] it was 7.68 µM.

Consider `COC(=O)Nc1nc2ccc(Oc3ccc(NC(=O)Nc4ccccc4)cc3)cc2[nH]1`, for which the GI50 in experiment [1] is 0.18 µM; in experiment [2], 0.119 µM; in experiment [3], 0.135 µM; in experiment [4], 0.168 µM; in [5] it was 0.14 µM; in experiment [6] it was 0.545 µM. Also, the GI50 was 0.267 µM in [7], 0.0885 µM in [8], 0.348 µM in [9] and 1.65 µM in experiment [10]. Moreover, the TGI in experiment [1] was 5.05 µM; in experiment [2], greater than 10.4 µM; in experiment [3] it was greater than 25 µM; in [4] it was 2.6 µM; in experiment [5], greater than 11.4 µM; in [6], 8.04 µM. For the same molecule, the TGI in experiment [7] was greater than 14.5 µM; in [8] it was 0.878 µM; in experiment [9], 6.4 µM; in [10] it was greater than 25 µM.

Take `COC(=O)c1cccc2cccc(C(=O)Nc3ccc(C)cc3C)c12`: the TGI in experiment [1], in experiment [2], in experiment [3], in experiment [4], in experiment [5] and in experiment [6] was greater than 100 µM throughout. Further, the TGI in [7], in experiment [8], in [9] and in experiment [10] was greater than 100 µM each time.

For the molecule `C=CCCCCCCCCC(=O)NS(=O)(=O)c1ccccc1`, the TGI in experiment [1], in experiment [2], in experiment [4], in experiment [5], in [6] and in [7] was greater than 100 µM throughout. The TGI in experiment [8], in [9] and in experiment [10] was greater than 100 µM throughout.

With `CN(C)CC/C(=N\Nc1c(Cl)cccc1Cl)c1ccccc1`, the TGI in experiment [1] was 31.3 µM; in experiment [2] it was 29.1 µM; in experiment [3] it was 35.6 µM; in experiment [4] it was 34.2 µM; in experiment [5], 43.6 µM; in [6], 37.6 µM. Moreover, the TGI stood at 34.2 µM in experiment [8], 39.7 µM in experiment [9] and 22.5 µM in [10].

As for `CCOC1=NC(=O)CC(c2ccccc2)S1` (centres undefined), the TGI in experiment [1], in experiment [2], in [3], in experiment [4], in [5] and in experiment [6] was greater than 100 µM in each case. Besides, the TGI in experiment [7], in experiment [8] and in experiment [10] was greater than 100 µM in each case.

With `Cc1ccc2nc3c(C(=O)NCCN(C)C)cccc3nc2c1`, the TGI in experiment [1] is greater than 77.2 µM; in [2] it was 12 µM; in experiment [3], 18 µM; in [4], greater than 33.7 µM; in experiment [5] it was 8.37 µM; in [6], greater than 42.2 µM. The figures for the TGI in experiment [8], in [9] and in [10] were 15.7 µM, 10.9 µM and greater than 54.8 µM, respectively.

As to `Cc1ccc(Nc2nc3c(s2)C(=O)c2ccccc2C3=O)c(C)c1`, the TGI in experiment [1] was determined as 32.5 µM; in experiment [3], 41.5 µM; in experiment [4], 28.9 µM; in experiment [5], 26.9 µM; in experiment [6] it was 35.2 µM; in experiment [7], 24.1 µM. Moreover, the TGI stood at 31.4 µM in [8], 31.1 µM in [9] and 27.3 µM in experiment [10].

With `COC(=O)c1cc(Br)c(Br)n1C`, the TGI in [1], in [2], in experiment [4], in experiment [5], in experiment [6] and in experiment [7] was greater than 100 µM in each case. Also, the TGI in [8], in [9] and in [10] was greater than 100 µM in each case.
